Assay results reported in PubChem BioAssay (NCI).
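All cell lines were grown in 96-well plates and treated with compound for 48 hours. GI50 marks 50% less growth. TGI denotes the concentration required for complete inhibition of growth.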

Tests used:
Test in all cases: NCI tumour cell line growth inhibition, 48 h
[1] = system: IGROV1 ovarian
[2] = system: SK-MEL-28 melanoma
[3] = system: UO-31 renal
[4] = system: MDA-MB-231 breast
[5] = system: U251 CNS
[6] = system: HS 578T breast
[7] = system: NCI-H522 lung
[8] = system: PC-3 prostate
[9] = system: UACC-257 melanoma
[10] = system: SF-268 CNS
[11] = system: RXF 393 renal
[12] = system: HCT-116 colon
[13] = system: RPMI-8226 leukemia
[14] = system: OVCAR-5 ovarian
[15] = system: SK-MEL-5 melanoma
[16] = system: CCRF-CEM leukemia
[17] = system: NCI-H23 lung
[18] = system: A549 NSCLC
[19] = system: MDA-MB-435
[20] = system: A498 renal
[21] = system: MALME-3M melanoma
[22] = system: SF-295 CNS
[23] = system: MOLT-4 leukemia
[24] = system: NCI/ADR-RES ovarian
[25] = system: SNB-19 CNS
[26] = system: SW-620 colon
[27] = system: OVCAR-4 ovarian
[28] = system: UACC-62 melanoma
[29] = system: HL-60(TB) leukemia
[30] = system: TK-10 renal
[31] = system: SN12C renal
[32] = system: BT-549 breast
[33] = system: DU-145 prostate
[34] = system: SK-MEL-2 melanoma
[35] = system: NCI-H460 lung
[36] = system: NCI-H226 lung
[37] = system: HCT-15 colon
[38] = system: EKVX NSCLC
[39] = system: KM12 colon
[40] = system: M14 melanoma
[41] = system: SF-539 CNS
[42] = system: SNB-75 CNS
[43] = system: OVCAR-8 ovarian
[44] = system: HOP-62 NSCLC
[45] = system: COLO 205 colon
[46] = system: ACHN renal
[47] = system: HT29 colon
[48] = system: K-562 leukemia
[49] = system: OVCAR-3 ovarian
[50] = system: HCC-2998 colon
[51] = system: LOX IMVI melanoma
[52] = system: T-47D breast
[53] = system: 786-0 renal
[54] = system: CAKI-1 renal
[55] = system: SK-OV-3 ovarian
[56] = system: MCF7 breast
[57] = system: MDA-N

SMILES: O=C1Nc2ccccc2/C1=N\[O-].O=C1Nc2ccccc2/C1=N\[O-].[Cu+2]
- GI50 [1]: > 100 µM
- TGI [1]: > 100 µM
- GI50 [2]: > 100 µM
- TGI [2]: > 100 µM
- GI50 [3]: > 100 µM
- TGI [3]: > 100 µM
- GI50 [4]: > 100 µM
- TGI [4]: > 100 µM
- GI50 [5]: > 100 µM
- TGI [5]: > 100 µM
- GI50 [6]: > 100 µM
- TGI [6]: > 100 µM
- GI50 [7]: > 100 µM
- TGI [7]: > 100 µM
- GI50 [8]: > 100 µM
- TGI [8]: > 100 µM
- GI50 [9]: > 100 µM
- TGI [9]: > 100 µM
- GI50 [10]: > 100 µM
- TGI [10]: > 100 µM
- GI50 [11]: > 100 µM
- TGI [11]: > 100 µM
- GI50 [12]: > 100 µM
- TGI [12]: > 100 µM
- GI50 [13]: > 100 µM
- TGI [13]: > 100 µM
- GI50 [14]: > 100 µM
- TGI [14]: > 100 µM
- GI50 [15]: > 100 µM
- TGI [15]: > 100 µM
- GI50 [16]: > 100 µM
- TGI [16]: > 100 µM
- GI50 [17]: > 100 µM
- TGI [17]: > 100 µM
- GI50 [18]: > 100 µM
- TGI [18]: > 100 µM
- GI50 [19]: > 100 µM
- TGI [19]: > 100 µM
- GI50 [20]: > 100 µM
- TGI [20]: > 100 µM
- GI50 [21]: > 100 µM
- TGI [21]: > 100 µM
- GI50 [22]: > 100 µM
- TGI [22]: > 100 µM
- GI50 [23]: > 100 µM
- TGI [23]: > 100 µM
- GI50 [24]: > 100 µM
- TGI [24]: > 100 µM
- GI50 [25]: > 100 µM
- TGI [25]: > 100 µM
- GI50 [26]: > 100 µM
- TGI [26]: > 100 µM
- GI50 [27]: > 100 µM
- TGI [27]: > 100 µM
- GI50 [28]: > 100 µM
- TGI [28]: > 100 µM
- GI50 [29]: > 100 µM
- TGI [29]: > 100 µM
- GI50 [30]: > 100 µM
- TGI [30]: > 100 µM
- GI50 [31]: > 100 µM
- TGI [31]: > 100 µM
- GI50 [32]: > 100 µM
- TGI [32]: > 100 µM
- GI50 [33]: > 100 µM
- TGI [33]: > 100 µM
- GI50 [34]: > 100 µM
- TGI [34]: > 100 µM
- GI50 [35]: > 100 µM
- TGI [35]: > 100 µM
- GI50 [36]: > 100 µM
- TGI [36]: > 100 µM
- GI50 [37]: > 100 µM
- TGI [37]: > 100 µM
- GI50 [38]: > 100 µM
- TGI [38]: > 100 µM
- GI50 [39]: > 100 µM
- TGI [39]: > 100 µM
- GI50 [40]: > 100 µM
- TGI [40]: > 100 µM
- GI50 [41]: > 100 µM
- TGI [41]: > 100 µM
- GI50 [42]: > 100 µM
- TGI [42]: > 100 µM
- GI50 [43]: > 100 µM
- TGI [43]: > 100 µM
- GI50 [44]: > 100 µM
- TGI [44]: > 100 µM
- GI50 [45]: > 100 µM
- TGI [45]: > 100 µM
- GI50 [46]: > 100 µM
- TGI [46]: > 100 µM
- GI50 [47]: > 100 µM
- TGI [47]: > 100 µM
- GI50 [48]: > 100 µM
- TGI [48]: > 100 µM
- GI50 [49]: > 100 µM
- TGI [49]: > 100 µM
- GI50 [50]: > 100 µM
- TGI [50]: > 100 µM
- GI50 [51]: > 100 µM
- TGI [51]: > 100 µM
- GI50 [52]: > 100 µM
- TGI [52]: > 100 µM
- GI50 [53]: > 100 µM
- TGI [53]: > 100 µM
- GI50 [54]: > 100 µM
- TGI [54]: > 100 µM
- GI50 [55]: > 100 µM
- TGI [55]: > 100 µM
- GI50 [56]: > 100 µM
- TGI [56]: > 100 µM
- GI50 [57]: > 100 µM
- TGI [57]: > 100 µM
